{
  "source": "patent US7396946B2",
  "about": "“Compound for treatment of external secretion disorders” (Sucampo AG, priority 1999, dated 2008)",
  "key": {"[1]": {"tested_on": "Rabbit Dry-eye Syndrome Model, which was Induced by Trigeminal Denervation", "experiment": "Whole tear secretion (Schirmer's test) in rabbit dry-eye syndrome model induced by trigeminal denervation (Test Example 2)", "format": "in vivo, male Japanese albino rabbits (Std:JW/CSK)", "details": "for whole tear secretion: 5 eyes", "protocol": "Fifteen male Japanese albino rabbits (Std:JW/CSK) were used.\n(2) Generating Rabbit Dry-eye Syndrome Model by Trigeminal Denervation.\nUrethane (ALDRICH) was administered i.p. at the dose of 1 g/kg to the rabbits of which occipital hair had been shaved.\nAfter disinfecting of the shaved area, midline incision of the skin was made from the frontal bone to the ear root, and the muscular tissue around the periosteum, temporal bone and manidibular articular process were detached. After the detachment, a hole of 2×1.5 cm in size was made in the bone from the parietal medial region to the temporal region by means of the bone drill (URAWA KOGYO Co., Ltd. MINITOR C-130) under the surgical microscope (KONAN CAMERA R&I Inc., PMO-50). Then, the dura was detached from the cranial bone while cotton bud was kept inserted between the temporal bone and the dura. After the detachment was made up to the cranial base, detachment was further made toward the medial border of the petrous part of temporal bone in the carnial cavity, to find the trigeminal nerve in the petrous part. Then, the dura of about 1 to 2 mm on the nasal side of the semilunar ganglion was incised. After the incision, the two branches of nerve fascicle, i.e. the first branch (ocular nerve) of the trigeminal nerve and the second branch (maxillary nerve) were pulled laterally and cut with corneoscleral scissors. Immediately after the operation, miosis of the ipsilateral eye was confirmed and then the cotton kept inserted was removed, and the skin at the head was closed with suture. After the operation, an antibiotic (MYCILLIN SQL® Meiji) was administered i.m. at the dose of 0.1 ml/kg.\nThe trigeminal denervation was made only on the left eye side, while on the right eye side, no trigeminal denervation nor sham operation was made.\n(3) Method of Administration.\n13,14-dihydro-15-keto-16,16-difluoro-PGE1 was used as an active ingredient of the present invention to prepare test eyedrops containing 0.0001% and 0.001% of the compound. As a control, the vehicle of the eyedrops without the active ingredient was used.\nEach of the compositions was instilled to the eyes everyday at the volume of 30 μl/eye two times a day (at 10:00 and 18:00) for two weeks. Five eyes per each of the test groups and the control group were treated and then examined for the whole tear secretion, the basal tear secretion and the keratoepithelial lesion as follows.\ni) Whole Tear Secretion (Schirmer's Test)\nBefore the start of the instillation (week 0), and 1, 2, and 3 weeks after the start, the whole tear secretion was measured two hours after the first instillation on the day of examination.\nUnder no anesthetization, one edge of the Schirmer's test strip (Showa Yakuhin Kako Co., Ltd., Lot No. 70080) was inserted into the conjunctival sac of each test animal. One minute after, the strip was removed and the length of the moistened part was read from the scale provided on the strip to determine the amount of whole tear secretion."}, "[2]": {"tested_on": "rats (Crj:CD strain)", "experiment": "Exaltation of salivation, saliva evaluated visually (Test Example 3)", "format": "in vivo, Male and female rats (Crj:CD strain)", "details": "1 mg/kg orally once a day, 16 animals per group", "protocol": "The effect of the composition of the present invention on salivary secretion was determined. (1) Test Animals Male and female rats (Crj:CD strain) were used. Each of the test and control groups contains 16 animals. (2) Method of Administration 13,14-dihydro-15-keto-16,16-difuloro-PGE1 was used as an active ingredient of the present invention to prepare test solution containing 0.2 mg/ml of the compound. 5 ml/kg of the solution (1 mg/kg of the compound) was forcedly administrated orally once a day. For the animals of control group, 5 ml/kg of the vehicle without the active ingredient was administrated once a day. The administration was continued for four weeks. (3) Examination The amount of the saliva of the test group and control group was evaluated visually everyday."}},
  "note": "Marks after values point to notes of the source that are not given here.",
  "data": [
    {"molecule": "CCCCC(F)(F)C(=O)CCC1C(O)CC(=O)C1CCCCCCC(=O)O", "note": "(centres unmarked) [13,14-dihydro-15-keto-16,16-difluoro-PGE1]", "values": [
      {"measurement": "whole tear secretion", "setting": "[1]; 0.0001% eyedrops 30 μl/eye two times a day for two weeks, week 1", "value": "7.10 ± 0.51**^++ mm/min."},
      {"measurement": "whole tear secretion", "setting": "[1]; 0.0001% eyedrops 30 μl/eye two times a day for two weeks, week 2", "value": "6.60 ± 0.37*^##++ mm/min."},
      {"measurement": "whole tear secretion", "setting": "[1]; 0.0001% eyedrops 30 μl/eye two times a day for two weeks, week 3", "value": "6.30 ± 0.68^++ mm/min."},
      {"measurement": "whole tear secretion", "setting": "[1]; 0.001% eyedrops 30 μl/eye two times a day for two weeks, week 1", "value": "11.20 ± 0.51**^##++ mm/min."},
      {"measurement": "whole tear secretion", "setting": "[1]; 0.001% eyedrops 30 μl/eye two times a day for two weeks, week 2", "value": "10.50 ± 0.57**^##++ mm/min."},
      {"measurement": "whole tear secretion", "setting": "[1]; 0.001% eyedrops 30 μl/eye two times a day for two weeks, week 3", "value": "9.90 ± 0.81**^##++ mm/min."},
      {"measurement": "decreased whole tear secretion (result in words)", "setting": "[1]; dry-eye syndrome model animals, 0.0001% and 0.001% eyedrops", "value": "improved"},
      {"measurement": "whole tear secretion", "setting": "[1]; test group 0.0001% eyedrops, before administration (after operation, baseline)", "value": "3.00 ± 0.61", "unit": "mm/min."},
      {"measurement": "whole tear secretion", "setting": "[1]; test group 0.001% eyedrops, before administration (after operation, baseline)", "value": "3.20 ± 0.51", "unit": "mm/min."},
      {"measurement": "rats in which exaltation of saliva was observed", "setting": "[2]; 10th day after the start of the administration", "value": "8 of 16"},
      {"measurement": "rats showing salivary exaltation", "setting": "[2]; subsequent to the 22nd day after the start", "value": 16, "unit": "rats"}
    ]}
  ]
}
